Residue numbers refer to the chain shown, from its start. Where a SMILES comes first, the peptide text is derived from it. Bridges are numbered along the chain shown (N, C = ends).
Assays:
Assay in all cases: Heterologous whole cell competition binding
Conditions in all cases: heterologous competition of 125I-sCT(8-32), whole cells, mean ± S.E.M., SEM
hCTR S364A = target: T1, hCTR S364A (Homo sapiens, UniProt P30988, S364A)
T1 construct: c-Myc (N); expressed in transfected cells
T1 sequence (P30988 25-474 S364A): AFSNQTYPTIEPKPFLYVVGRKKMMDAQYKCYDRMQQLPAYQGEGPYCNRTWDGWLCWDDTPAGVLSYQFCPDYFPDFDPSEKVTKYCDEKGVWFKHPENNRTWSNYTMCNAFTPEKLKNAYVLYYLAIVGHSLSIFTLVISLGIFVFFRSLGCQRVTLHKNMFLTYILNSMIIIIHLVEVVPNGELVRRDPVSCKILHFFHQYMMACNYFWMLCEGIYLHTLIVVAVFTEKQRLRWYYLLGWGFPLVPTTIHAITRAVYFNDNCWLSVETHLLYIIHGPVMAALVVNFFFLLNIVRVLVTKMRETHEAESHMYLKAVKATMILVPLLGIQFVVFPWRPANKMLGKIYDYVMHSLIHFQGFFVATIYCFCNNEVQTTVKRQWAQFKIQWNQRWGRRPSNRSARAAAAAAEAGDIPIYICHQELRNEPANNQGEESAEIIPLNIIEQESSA
Summary of the method: (§1)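 Whole cells expressing each receptor mutant were incubated overnight with radioligand and competitor, after which unbound ligand was removed and bound radioactivity counted on a gamma counter. Inhibition values were corrected for radioligand occupancy by the Cheng-Prusoff equation and reported as pKi.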

hCTR F356A = target: T2, hCTR F356A (Homo sapiens, UniProt P30988, F356A)
T2 construct: c-Myc (N); expressed in transfected cells
T2 sequence (P30988 25-474 F356A): T1 sequence (P30988 25-474 S364A) with F332A, A340S
Summary of the method: as §1

hCTR V375A = target: T3, hCTR V375A (Homo sapiens, UniProt P30988, V375A)
T3 construct: c-Myc (N); expressed in transfected cells
T3 sequence (P30988 25-474 V375A): T1 sequence (P30988 25-474 S364A) with A340S, V351A
Summary of the method: as §1

hCTR W361A = target: T4, hCTR W361A (Homo sapiens, UniProt P30988, W361A)
T4 construct: expressed in transfected cells
T4 sequence (P30988 25-474 W361A): T1 sequence (P30988 25-474 S364A) with W337A, A340S
Summary of the method: as §1

hCTR L368A = target: T5, hCTR L368A (Homo sapiens, UniProt P30988, L368A)
T5 construct: c-Myc (N); expressed in transfected cells
T5 sequence (P30988 25-474 L368A): T1 sequence (P30988 25-474 S364A) with A340S, L344A
Summary of the method: as §1

## CSCC[C@H](NC(=O)CNC(=O)[C@H](CO)NC(=O)[C@H](Cc1ccccc1)NC(=O)[C@H](CCCNC(=N)N)NC(=O)[C@H](Cc1c[nH]cn1)NC(=O)[C@H](Cc1ccccc1)NC(=O)[C@H](CC(N)=O)NC(=O)[C@H](CC(N)=O)NC(=O)[C@H](CC(C)C)NC(=O)[C@H](CC(N)=O)NC(=O)[C@H](CCCNC(=N)N)NC(=O)[C@H](Cc1c[nH]c2ccccc12)NC(=O)[C@H](Cc1ccc(O)cc1)NC(=O)[C@H](C)NC(=O)[C@H](CO)NC(=O)[C@H](CC(C)C)NC(=O)[C@@H](NC(=O)[C@@H]1CSSC[C@H](N)C(=O)N[C@@H](CO)C(=O)N[C@@H](CC(N)=O)C(=O)N[C@@H](CC(C)C)C(=O)N[C@@H](CO)C(=O)N[C@@H]([C@@H](C)O)C(=O)N1)C(C)C)C(=O)NCC(=O)N[C@@H](Cc1ccccc1)C(=O)NCC(=O)N1CCC[C@H]1C(=O)N[C@@H](CCC(=O)O)C(=O)N[C@H](C(=O)N1CCC[C@H]1C(N)=O)[C@@H](C)O [pCT] (H-CSNLSTCVLSAYWRNLNNFHRFSGMGFGPETP-NH2; disulfide 1-7)
hCTR S364A
  Ki: 5.37 nM
hCTR F356A
  Ki: 12 nM
hCTR V375A
  Ki: 5.13 nM
hCTR W361A
  Ki: 33.9 nM
hCTR L368A
  Ki: 8.51 nM

Source: publication PMC5908784, “Extracellular loops 2 and 3 of the calcitonin receptor selectively modify agonist binding and efficacy” (Biochemical Pharmacology, 2018)
